Laboratory results: patent US20050009840A1 (SUGEN, INC., priority 2003, published 2005)

Biological target: T1, Met kinase domain (GST fusion protein) (Homo sapiens, UniProt P08581)
T1 construct: Purified GST fusion protein containing the Met kinase domain
Assay: Met transphosphorylation assay (ELISA, poly(glu-tyr) substrate);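 further: Cell-free ELISA with plate-bound poly(Glu:Tyr 4:1) phosphorylated by GST-fused Met kinase domain plus ATP and Mn2+, phosphotyrosine detected by anti-phosphotyrosine antibody with HRP and ABTS read-out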
Type: biochemical
Conditions: read-out: Met IC50

T1 sequence (P08581 1078-1345 limits assumed): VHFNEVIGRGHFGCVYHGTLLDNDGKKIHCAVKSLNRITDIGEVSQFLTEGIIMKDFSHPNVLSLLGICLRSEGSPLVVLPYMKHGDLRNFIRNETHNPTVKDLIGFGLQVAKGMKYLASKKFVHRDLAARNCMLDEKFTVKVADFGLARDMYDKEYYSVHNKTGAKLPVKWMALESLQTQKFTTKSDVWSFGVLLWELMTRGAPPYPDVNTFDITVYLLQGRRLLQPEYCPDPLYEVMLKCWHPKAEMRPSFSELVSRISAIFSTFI

| SMILES | IC50 [µM] |
| --- | --- |
| CC(Oc1nc(-c2ccc(C(=O)NCCN3CCOCC3)cc2)cnc1N)c1c(Cl)cccc1Cl (stereo not shown) [II-158, 4-{5-Amino-6-[1-(2,6-dichloro-phenyl)-ethoxy]-pyrazin-2-yl}-N-(2-morpholin-4-yl-ethyl)-benzamide] | 0.32 |
| CC(Oc1nc(-c2ccc(C(=O)N3CCC[C@@H]3CN3CCCC3)cc2)cnc1N)c1c(Cl)cccc1Cl (stereo partly drawn) [II-161, (4-{5-Amino-6-[1-(2,6-dichloro-phenyl)-ethoxy]-pyrazin-2-yl}-phenyl)-((R)-2-pyrrolidin-1-ylmethyl-pyrrolidin-1-yl)-methanone] | 0.16 |
| CC(Oc1nc(-c2ccc(C(=O)N3CC[C@H](N)C3)cc2)cnc1N)c1c(Cl)cccc1Cl (stereo partly drawn) [II-165, (4-{5-Amino-6-[1-(2,6-dichloro-phenyl)-ethoxy]-pyrazin-2-yl}-phenyl)-((S)-3-aminopyrrolidin-1-yl)-methanone hydrogen chloride] | 0.1 |
| CC(Oc1nc(-c2ccc(C(=O)NCCN3CCCC3)cc2)cnc1N)c1c(Cl)cccc1Cl (stereo not shown) [II-166, 4-{5-Amino-6-[1-(2,6-dichloro-phenyl)-ethoxy]-pyrazin-2-yl}-N-(2-pyrrolidin-1-yl-ethyl)-benzamide] | 0.11 |
| CC(Oc1nc(-c2ccc(C(=O)NCCCN3CCCC3)cc2)cnc1N)c1c(Cl)cccc1Cl (stereo not shown) [II-167, 4-{5-Amino-6-[1-(2,6-dichloro-phenyl)-ethoxy]-pyrazin-2-yl}-N-(3-pyrrolidin-1-yl-propyl)-benzamide] | 0.22 |
| CC(Oc1nc(-c2cccc(C(=O)NC3CCN(C)CC3)c2)cnc1N)c1c(Cl)cccc1Cl (stereo not shown) [II-169, 3-{5-Amino-6-[1-(2,6-dichloro-phenyl)-ethoxy)-pyrazin-2-yl}-N-(1-methyl-piperidin-4-yl)-benzamide] | 0.18 |

Next, values leading:

| IC50 [µM] | SMILES |
| --- | --- |
| 0.095 | CC(Oc1nc(-c2ccc(C(=O)N3C[C@@H](C)N[C@@H](C)C3)cc2)cnc1N)c1c(Cl)ccc(F)c1Cl (stereo partly drawn) [II-155, (4-{5-Amino-6-[1-(2,6-dichloro-3-fluoro-phenyl)-ethoxy]-pyrazin-2-yl}-phenyl)-((3R,5S)-3,5-dimethyl-piperazin-1-yl)-methanone] |
| 0.16 | CC(Oc1nc(-c2ccc(C(=O)N3CCC(N4CCCC4)CC3)cc2)cnc1N)c1c(Cl)cccc1Cl (stereo not shown) [II-157, (4-{5-Amino-6-[1-(2,6-dichloro-phenyl)-ethoxy]-pyrazin-2-yl}-phenyl)-(4-pyrrolidin-1-yl-piperidin-1-yl)-methanone] |
| 0.14 | CC(Oc1nc(-c2ccc(C(=O)N3C[C@@H](C)N[C@@H](C)C3)cc2)cnc1N)c1c(Cl)cccc1Cl (stereo partly drawn) [II-159, (4-{5-Amino-6-[1-(2,6-dichloro-phenyl)-ethoxy]-pyrazin-2-yl}-phenyl)-((3R,5S)-3,5-dimethyl-piperazin-1-yl)-methanone] |
| 0.12 | CC(Oc1nc(-c2ccc(C(=O)NC3CCN(C)CC3)cc2)cnc1N)c1c(Cl)cccc1Cl (stereo not shown) [II-160, 4-{5-Amino-6-[1-(2,6-dichloro-phenyl)-ethoxy]-pyrazin-2-yl}-N-(1-methyl-piperidin-4-yl)-benzamide] |
| 0.14 | CC(Oc1nc(-c2ccc(C(=O)N3CCC[C@H]3CN3CCCC3)cc2)cnc1N)c1c(Cl)cccc1Cl (stereo partly drawn) [II-162, (4-{5-Amino-6-[1-(2,6-dichloro-phenyl)-ethoxy]-pyrazin-2-yl}-phenyl)-((S)-2-pyrrolidin-1-ylmethyl-pyrrolidin-1-yl)-methanone] |
| 0.15 | CC(Oc1nc(-c2ccc(C(=O)N3CCN(C)CC3)cc2)cnc1N)c1c(Cl)cccc1Cl (stereo not shown) [II-163, (4-{5-Amino-6-[1-(2,6-dichloro-phenyl)-ethoxy]-pyrazin-2-yl}-phenyl)-(4-methyl-piperazin-1-yl)-methanone] |
| 0.15 | CC(Oc1nc(-c2ccc(C(=O)N3CC[C@@H](N)C3)cc2)cnc1N)c1c(Cl)cccc1Cl (stereo partly drawn) [II-164, (4-{5-Amino-6-[1-(2,6-dichloro-phenyl)-ethoxy]-pyrazin-2-yl}-phenyl)-((R)-3-aminopyrrolidin-1-yl)-methanone] |
